From patent publication US20250154127A1, “BICYCLIC HETEROARYL COMPOUNDS AND USES THEREOF” (ETERN BIOPHARMA (SHANGHAI) CO., LTD., priority 2022, published 2025)

Columns and labels:
[1] = target: TEAD1(210-426) binding to YAP(50-100) (Homo sapiens, UniProt P28347); assay: TR-FRET Assay for TEAD1(210-426) Binding to YAP(50-100); details: His-TEAD 10 nM, YAP-Biotin peptide 50 nM
Summary of the method: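 10 nM His-TEAD1 preincubated 30 min at room temperature with compound (3-fold dilutions, 12 points, 1% DMSO), then 50 nM biotin-YAP peptide added.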

MSTO-211H cells = assay: Proliferation Assay (CellTiter-Glo Luminescent Cell Viability Assay); type: cell-based; details: Homo sapiens, 96 hours treatment
Summary of the method: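 MSTO-211H cells, 1,500/well in RPMI 1640 with 10% FBS, plated overnight, then treated 96 h with 9-point 3-fold compound series in duplicate (DMSO below 0.5%). Viability by CellTiter-Glo luminescence; inhibition relative to DMSO wells, IC50 by four-parameter fit.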

Chain of TEAD1(210-426) binding to YAP(50-100) (P28347 209-426): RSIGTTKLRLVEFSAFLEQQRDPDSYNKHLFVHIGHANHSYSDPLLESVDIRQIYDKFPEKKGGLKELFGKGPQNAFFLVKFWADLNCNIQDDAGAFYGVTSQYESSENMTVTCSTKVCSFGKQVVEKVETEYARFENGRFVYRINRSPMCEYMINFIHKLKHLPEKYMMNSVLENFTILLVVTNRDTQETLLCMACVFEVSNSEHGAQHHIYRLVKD

| Structure (SMILES) | IC50 [1] [µM] | IC50 (MSTO-211H cells) [µM] |
| --- | --- | --- |
| C[C@@H](c1ccccn1)n1ccc(-c2nn(-c3ccc(C(F)(F)F)cc3)c3cccnc23)cc1=O [Compound 2, (S)-1-(1-(pyridin-2-yl)ethyl)-4-(1-(4-(trifluoromethyl)phenyl)-1H-pyrazolo[4,3-b]pyridin-3-yl)pyridin-2(1H)-one] | ≤ 0.1 | ≤ 1 |
| COCCNc1ccnc(Cn2ccc(-c3nn(-c4ccc(C(F)(F)F)cc4)c4ncccc34)cc2=O)n1 [Compound 76, 1-((4-((2-methoxyethyl)amino)pyrimidin-2-yl)methyl)-4-(1-(4-(trifluoromethyl)phenyl)-1H-pyrazolo[3,4-b]pyridin-3-yl)pyridin-2(1H)-one] | ≤ 0.1 | ≤ 1 |
| Nc1ccnc(Cn2ccc(-c3nn(-c4ccc(C(F)(F)F)cc4)c4ccccc34)cc2=O)n1 [Compound 17, 1-((4-aminopyrimidin-2-yl)methyl)-4-(1-(4-(trifluoromethyl)phenyl)-1H-indazol-3-yl)pyridin-2(1H)-one] | ≤ 0.1 | ≤ 1 |
| CN(CCO)c1nccc(Cn2ccc(-n3nc(-c4ccc(C(F)(F)F)cc4)c4nccnc43)cc2=O)n1 [Compound 52, 1-((2-((2-hydroxyethyl)(methyl)amino)pyrimidin-4-yl)methyl)-4-(3-(4-(trifluoromethyl)phenyl)-1H-pyrazolo[3,4-b]pyrazin-1-yl)pyridin-2(1H)-one] | ≤ 0.1 | ≤ 1 |
| O=c1cc(-c2nn(-c3ccc(C(F)(F)F)cc3)c3ccccc23)ccn1Cc1nccc(N2CCC(O)CC2)n1 [Compound 86, 1-((4-(4-hydroxypiperidin-1-yl)pyrimidin-2-yl)methyl)-4-(1-(4-(trifluoromethyl)phenyl)-1H-indazol-3-yl)pyridin-2(1H)-one] | ≤ 0.1 | ≤ 1 |
| Cn1ccc(Cn2ccc(-c3cn(-c4ccc(C(F)(F)F)cc4)c4ncccc34)cc2=O)n1 [Compound 64, 1-((1-methyl-1H-pyrazol-3-yl)methyl)-4-(1-(4-(trifluoromethyl)phenyl)-1H-pyrrolo[2,3-b]pyridin-3-yl)pyridin-2(1H)-one] | ≤ 0.1 | ≤ 1 |
| O=c1cc(-c2nn(-c3ccc(C(F)(F)F)cc3)c3ccccc23)ccn1Cc1cccc(Cl)n1 [Compound 89, 1-((6-chloropyridin-2-yl)methyl)-4-(1-(4-(trifluoromethyl)phenyl)-1H-indazol-3-yl)pyridin-2(1H)-one] | ≤ 0.1 | ≤ 1 |
| C[C@@H](c1cccnc1)n1ccc(-c2nn(-c3ccc(C(F)(F)F)cc3)c3ccccc23)cc1=O [Compound 13, (S)-1-(1-(pyridin-3-yl)ethyl)-4-(1-(4-(trifluoromethyl)phenyl)-1H-indazol-3-yl)pyridin-2(1H)-one] | ≤ 0.1 | ≤ 1 |
| CNc1nccc(Cn2ccc(-c3nn(-c4ccc(C(F)(F)F)cc4C)c4ncccc34)cc2=O)n1 [Compound 57] | ≤ 0.1 | ≤ 1 |
| O=c1cc(-c2nn(-c3ccc(C(F)(F)F)cc3)c3ccccc23)ccn1Cc1ncccn1 [Compound 15, 1-(pyrimidin-2-ylmethyl)-4-(1-(4-(trifluoromethyl)phenyl)-1H-indazol-3-yl)pyridin-2(1H)-one] | ≤ 0.1 | ≤ 1 |
| O=c1cc(-c2nn(-c3ccc(C(F)(F)F)cc3)c3ccccc23)ccn1Cc1ccccn1 [Compound 12, 1-(pyridin-2-ylmethyl)-4-(1-(4-(trifluoromethyl)phenyl)-1H-indazol-3-yl)pyridin-2 (1H)-one] | ≤ 0.1 | 1 to 10 |
| O=c1cc(-n2nc(-c3ccc(C(F)(F)F)cc3)c3nccnc32)ccn1Cc1ccnc(NCCO)n1 [Compound 50, 1-((2-((2-hydroxyethyl)amino)pyrimidin-4-yl)methyl)-4-(3-(4-(trifluoromethyl)phenyl)-1H-pyrazolo[3,4-b]pyrazin-1-yl)pyridin-2(1H)-one] | ≤ 0.1 | ≤ 1 |
| O=c1cc(-c2nn(-c3ccc(C(F)(F)F)cc3)c3ccccc23)ccn1Cc1nccc(N2CC3(COC3)C2)n1 [Compound 87, 1-((4-(2-oxa-6-azaspiro[3.3]heptan-6-yl)pyrimidin-2-yl)methyl)-4-(1-(4-(trifluoromethyl)phenyl)-1H-indazol-3-yl)pyridin-2(1H)-one] | ≤ 0.1 | ≤ 1 |
| O=c1cc(-c2nn(-c3ccc(C(F)(F)F)cc3)c3ccccc23)ccn1Cc1nccc(OCCO)n1 [Compound 81, 1-((4-(2-hydroxyethoxy)pyrimidin-2-yl)methyl)-4-(1-(4-(trifluoromethyl)phenyl)-1H-indazol-3-yl)pyridin-2(1H)-one] | ≤ 0.1 | ≤ 1 |
| C[C@@H](c1ccccn1)n1ccc(-c2nn(-c3ccc(C(F)(F)F)cc3)c3cc(CO)ccc23)cc1=O [Compound 28, (S)-4-(6-(hydroxymethyl)-1-(4-(trifluoromethyl)phenyl)-1H-indazol-3-yl)-1-(1-(pyridin-2-yl)ethyl)pyridin-2(1H)-one] | ≤ 0.1 | ≤ 1 |
| C[C@H](c1ccccn1)n1ccc(-c2nn(-c3ccc(C(F)(F)F)cc3)c3cccnc23)cc1=O [Compound 3, (R)-1-(1-(pyridin-2-yl)ethyl)-4-(1-(4-(trifluoromethyl)phenyl)-1H-pyrazolo[4,3-b]pyridin-3-yl)pyridin-2(1H)-one] | 0.1 to 1 | 1 to 10 |
| C[C@@H](c1ccncc1)n1ccc(-c2nn(-c3ccc(C(F)(F)F)cc3)c3ccccc23)cc1=O [Compound 14, (S)-1-(1-(pyridin-4-yl)ethyl)-4-(1-(4-(trifluoromethyl)phenyl)-1H-indazol-3-yl)pyridin-2(1H)-one] | ≤ 0.1 | ≤ 1 |
| C[C@@H](c1ccccn1)n1ccc(-c2nn(-c3ccc(F)cc3)c3cccnc23)cc1=O [Compound 4, (S)-4-(1-(4-fluorophenyl)-1H-pyrazolo[4,3-b]pyridin-3-yl)-1-(1-(pyridin-2-yl)ethyl)pyridin-2(1H)-one] | 0.1 to 1 | 1 to 10 |
| C[C@@H](c1ccccn1)n1ccc(-c2nn(-c3ccc(C(F)(F)F)cc3)c3ccc(CO)cc23)cc1=O [Compound 24] | ≤ 0.1 | ≤ 1 |

Second part, led by results:

| IC50 [1] [µM] | Structure (SMILES) | IC50 (MSTO-211H cells) [µM] |
| --- | --- | --- |
| 0.1 to 1 | CNc1nccc([C@@H](C)n2ccc(-c3nn(-c4ccc(C(F)(F)F)cc4)c4ncccc34)cc2=O)n1 [Compound 130, (R)-1-(1-(2-(methylamino)pyrimidin-4-yl)ethyl)-4-(1-(4-(trifluoromethyl)phenyl)-1H-pyrazolo[3,4-b]pyridin-3-yl)pyridin-2(1H)-one] | ≤ 1 |
| ≤ 0.1 | CNc1nccc(Cn2ccc(-c3nn(-c4ccc(C5CC5)cc4)c4c(F)cccc34)cc2=O)n1 [Compound 149, 4-(1-(4-cyclopropylphenyl)-7-fluoro-1H-indazol-3-yl)-1-((2-(methylamino)pyrimidin-4-yl)methyl)pyridin-2(1H)-one] | ≤ 1 |
| ≤ 0.1 | O=c1cc(-c2nn(-c3ccc(C(F)(F)F)cc3)c3ncccc23)ccn1Cc1nccc(O)n1 [Compound 101, 1-((4-hydroxypyrimidin-2-yl)methyl)-4-(1-(4-(trifluoromethyl)phenyl)-1H-pyrazolo[3,4-b]pyridin-3-yl)pyridin-2(1H)-one] | ≤ 1 |
| 0.1 to 1 | CNc1nccc(Cn2ccc(-c3nn(-c4ccc(C(F)(F)F)cc4)c4c(C)cccc34)cc2=O)n1 [Compound 143, 4-(7-methyl-1-(4-(trifluoromethyl)phenyl)-1H-indazol-3-yl)-1-((2-(methylamino)pyrimidin-4-yl)methyl)pyridin-2(1H)-one] | ≤ 1 |
| ≤ 0.1 | Nc1nccc(Cn2ccc(-n3nc(-c4ccc(C(F)(F)F)cc4)c4ncccc43)cc2=O)n1 [Compound 118, 1-((2-aminopyrimidin-4-yl)methyl)-4-(3-(4-(trifluoromethyl)phenyl)-1H-pyrazolo[4,3-b]pyridin-1-yl)pyridin-2(1H)-one] | ≤ 1 |
| ≤ 0.1 | CO[C@H]1C[C@H](Nc2ccnc(Cn3ccc(-c4nn(-c5ccc(C(F)(F)F)cc5)c5ccccc45)cc3=O)n2)C1 [Compound 91, 1-((4-(((1r,3r)-3-methoxycyclobutyl)amino)pyrimidin-2-yl)methyl)-4-(1-(4-(trifluoromethyl)phenyl)-1H-indazol-3-yl)pyridin-2(1H)-one] | ≤ 1 |
| ≤ 0.1 | CN(CCO)c1ccnc(Cn2ccc(-c3nn(-c4ccc(C(F)(F)F)cc4)c4nccnc34)cc2=O)n1 [Compound 107, 1-((4-((2-hydroxyethyl)(methyl)amino)pyrimidin-2-yl)methyl)-4-(1-(4-(trifluoromethyl)phenyl)-1H-pyrazolo[3,4-b]pyrazin-3-yl)pyridin-2(1H)-one] | ≤ 1 |
| ≤ 0.1 | CN(CCO)c1nccc(Cn2ccc(-c3nn(-c4ccc(C(F)(F)F)cc4)c4nccnc34)cc2=O)n1 [Compound 106, 1-((2-((2-hydroxyethyl)(methyl)amino)pyrimidin-4-yl)methyl)-4-(1-(4-(trifluoromethyl)phenyl)-1H-pyrazolo[3,4-b]pyrazin-3-yl)pyridin-2(1H)-one] | ≤ 1 |
| ≤ 0.1 | CNc1nccc(Cn2ccc(-c3nc(-c4ccc(C(F)(F)F)cc4)n4ccccc34)cc2=O)n1 [Compound 127, 1-((2-(methylamino)pyrimidin-4-yl)methyl)-4-(3-(4-(trifluoromethyl)phenyl)imidazo[1,5-a]pyridin-1-yl)pyridin-2(1H)-one] | ≤ 1 |
| ≤ 0.1 | Nc1ccnc(Cn2ccc(-c3nn(-c4ccc(C(F)(F)F)cc4)c4ncccc34)cc2=O)n1 [Compound 110, 1-((4-aminopyrimidin-2-yl)methyl)-4-(1-(4-(trifluoromethyl)phenyl)-1H-pyrazolo[3,4-b]pyridin-3-yl)pyridin-2(1H)-one] | ≤ 1 |
